According to US10577399B2, “Modified lantibiotics and methods of making and using the modified lantibiotics” (priority 2016, dated 2020):
No end group written: not given here.

System: B. subtilis PY79 cells
Assay: Confocal microscopy localization of fluorescein labeled peptides
Type: cell-based, Bacillus subtilis
Details: 10 μg/mL, 15 minutes
Experimental: B. subtilis PY79 was grown and treated with fluorescein labeled peptide as previously described^39. A fresh plate of B. subtilis was used to inoculate THyex broth and incubated approximately 16 hours at 37° C. The culture was diluted 20-fold and placed back in the incubator for 3 hours at 37° C. Then, 100 μl of the culture was incubated with the antibiotic (10 μg/mL) for 15 minutes. The cells were pelleted and resuspended in 100 μl of phosphate buffer solution (PBS). The wash step was repeated three times before fixing with 1.6% formaldehyde in PBS. After fixation the cells were washed with PBS three more times and the remaining pellet was suspended in 50 μL of PBS. The sample (30 μL) was added to a slide and observed using an Olympus confocal microscope with a 100×/0.90 dry objective. A 488 nm argon laser was used to excite the fluorophore. For the competition assay, the bacterial culture was initially incubated with mu1140-COOH or native mutacin 1140 at a concentration of 10 μg/mL for 15 minutes, washed, and resuspended in fresh media. 10 μg/mL of fluorescein labeled nisin was then added for 15 minutes, before following the wash protocol previously stated.

With “fluorescein labeled nisin: nisin containing a C-terminal conjugate of fluorescein (ITSISLCTPGCKTGALMGCNMKTATCHCSIHVSK-fluorescein; ends and bridges not checked; also: lantibiotic thioether (lanthionine) rings and dehydrated residues, places not given here; UniProt P13068 24-57, looked up)” the “in vivo localization pattern of fluorescein labeled peptide” value was “large green patches on the cell surface” and the “in vivo localization pattern of fluorescein labeled peptide” value (listed as Fluorescein conjugated nisin) was “binds and abducts lipid II to form patches”.
